Data taken from ChEMBL document CHEMBL1151313, “Isolation and structure elucidation of new PKCalpha inhibitors from Pinus flexilis” (J Nat Prod, 1998).

biological target: Protein kinase C alpha type (Homo sapiens, UniProt P17252); experiment: Inhibition of human recombinant PKCalpha

IC50 [µM] | Compound
2.83 | OC[C@H]1O[C@@H](O[C@H](CCCCc2ccc(O)c(O)c2)CCc2ccc(O)c(O)c2)[C@H](O)[C@@H](O)[C@@H]1O
4.81 | Oc1ccc(CCCC[C@@H](O)CCc2ccc(O)c(O)c2)cc1O
4.26 | O=C(/C=C/CCc1ccc(O)c(O)c1)CCc1ccc(O)c(O)c1 [DEHYDROHIRSUTANONOL]
13.3 | O=C(CCc1ccc(O)c(O)c1)C[C@@H](O)CCc1ccc(O)c(O)c1 [HIRSUTANONOL]
18 | O=C(CCc1ccc(O)c(O)c1)C[C@H](CCc1ccc(O)c(O)c1)O[C@@H]1OC[C@@H](O)[C@H](O)[C@H]1O [OREGONIN]
